Results: patent US8394952B2 (Vertex Pharmaceuticals Incorporated, priority 2006, dated 2013)

Target: T1, Plk1 (Homo sapiens, UniProt P53350)
Assay: biochemical
Details: not given

T1 sequence (P53350 20-338): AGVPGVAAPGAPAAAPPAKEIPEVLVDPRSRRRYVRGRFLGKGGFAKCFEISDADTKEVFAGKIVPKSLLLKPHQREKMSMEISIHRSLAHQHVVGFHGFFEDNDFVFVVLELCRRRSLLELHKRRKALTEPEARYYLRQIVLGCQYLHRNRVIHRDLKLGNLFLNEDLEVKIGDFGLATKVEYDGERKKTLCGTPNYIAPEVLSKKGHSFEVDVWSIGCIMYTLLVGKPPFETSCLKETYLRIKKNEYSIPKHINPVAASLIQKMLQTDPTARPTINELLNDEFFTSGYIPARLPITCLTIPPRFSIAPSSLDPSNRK

Row | Structure (SMILES) | Ki [nM]
1 | CC[C@H]1CN(C2CCCC2)c2nc(Nc3ccc(C(=O)NC4CCN(C)CC4)cc3OC)ncc2N(C)C1=O [Compound I-113, 4-((S)-9-cyclopentyl-7-ethyl-6,7,8,9-tetrahydro-5-methyl-6-oxo-5H-pyrimido[4,5-b][1,4]diazepin-2-ylamino)-3-methoxy-N-(1-methylpiperidin-4-yl)benzamide] | < 10
2 | CNC(=O)c1ccc(Nc2ncc3c(n2)N(C2CCCC2)[C@@H]2CCC[C@@H]2C(=O)N3C)c(OC)c1 [Compound I-15, 4-((3aR,10aS)-4-cyclopentyl-9-methyl-10-oxo-1,2,3,3a,4,9,10,10a-octahydro-4,5,7,9-tetraaza-benzo[f]azulen-6-ylamino)-3-methoxy-N-methylbenzamide] | 10 to 100
3 | CC[C@H]1CN(C2CCCC2)c2nc(Nc3ccc(C(=O)NC4CCC4)cc3OC)ncc2N(C)C1=O [Compound I-119, 4-((S)-9-cyclopentyl-7-ethyl-6,7,8,9-tetrahydro-5-methyl-6-oxo-5H-pyrimido[4,5-b][1,4]diazepin-2-ylamino)-N-cyclobutyl-3-methoxybenzamide] | < 10
4 | COc1cc(C(=O)NC2CCN(CC3CC3)CC2)ccc1Nc1ncc2c(n1)N(C1CCCC1)CC(C)(C)C(=O)N2C [Compound I-59, 4-(9-cyclopentyl-6,7,8,9-tetrahydro-5,7,7-trimethyl-6-oxo-5H-pyrimido[4,5-b][1,4]diazepin-2-ylamino)-N-(1-(cyclopropylmethyl)piperidin-4-yl)-3-methoxybenzamide] | < 10

Next, values leading:

Row | Ki [nM] | Structure (SMILES)
5 | < 10 | COc1cc(C(=O)NCC2(O)CCCCC2)ccc1Nc1ncc2c(n1)N(C1CCCC1)CC(C)(C)C(=O)N2C [Compound I-205, 4-(9-cyclopentyl-5,7,7-trimethyl-6-oxo-6,7,8,9-tetrahydro-5H-pyrimido[4,5-b][1,4]diazepin-2-ylamino)-N-((1-hydroxycyclohexyl)methyl)-3-methoxy-benzamide]
6 | 10 to 100 | CN1C(=O)C(C)(C)CN(C2CCCC2)c2nc(Nc3cccc(C(=O)NC4CNC4)c3)ncc21 [Compound I-156, 3-(9-cyclopentyl-6,7,8,9-tetrahydro-5,7,7-trimethyl-6-oxo-5H-pyrimido[4,5-b][1,4]diazepin-2-ylamino)-N-(azetidin-3-yl)benzamide]
7 | < 10 | COc1cc(C(=O)Nc2cccnc2OC)ccc1Nc1ncc2c(n1)N(C1CCCC1)CC(C)(C)C(=O)N2C [Compound I-228, 4-(9-cyclopentyl-5,7,7-trimethyl-6-oxo-6,7,8,9-tetrahydro-5H-pyrimido[4,5-b][1,4]diazepin-2-ylamino)-3-methoxy-N-(2-methoxypyridin-3-yl)benzamide]
8 | < 10 | COc1cc(C(=O)NC[C@H](O)CO)ccc1Nc1ncc2c(n1)N(C1CCCC1)CC(C)(C)C(=O)N2C [Compound I-242, (S)-4-(9-cyclopentyl-5,7,7-trimethyl-6-oxo-6,7,8,9-tetrahydro-5H-pyrimido[4,5-b][1,4]diazepin-2-ylamino)-N-(2,3-dihydroxypropyl)-3-methoxybenzamide]

Target: T1, Plk1
Assay: Plk1 inhibition assay (radioactive-phosphate incorporation)
Details: Plk1 radioactive incorporation assay conditions

Row | solubility under the Plk1 assay conditions | Structure (SMILES)
9 | not soluble under the assay conditions | CNC(=O)c1ccc(Nc2ncc3c(n2)N(C2CCCC2)CC(C)(C)C(=O)N3C)nc1 [Compound I-126, 6-(9-cyclopentyl-6,7,8,9-tetrahydro-5,7,7-trimethyl-6-oxo-5H-pyrimido[4,5-b][1,4]diazepin-2-ylamino)-N-methylpyridine-3-carboxamide]
10 | not soluble under the assay conditions | CNC(=O)c1ccc(Nc2ncc3c(n2)N(C2CCCC2)CC(C)(C)C(=O)N3C)c(OC(F)(F)F)c1 [Compound I-142, 4-(9-Cyclopentyl-6,7,8,9-tetrahydro-5,7,7-trimethyl-6-oxo-5H-pyrimido[4,5-b][1,4]diazepin-2-ylamino)-N-methyl-3-(trifluoromethoxy)benzamide]

Same assay, conditions: test compound typically starting from 10 μM

Row | Structure (SMILES) | activity in the Plk1 radioactive incorporation assay (in words)
11 | CCOC(=O)N1CCC(Nc2ncc3c(n2)N(C2CCCC2)CCC(=O)N3C)CC1 [Compound I-13, Ethyl 4-(9-cyclopentyl-6,7,8,9-tetrahydro-5-methyl-6-oxo-5H-pyrimido[4,5-b][1,4]diazepin-2-ylamino)piperidin-1-carboxylate] | not active within the limits of the assay
12 | COc1cc(C(=O)O)ccc1Oc1ncc2c(n1)N(C1CCCC1)CC(C)(C)C(=O)N2C [Compound I-107, 4-(9-cyclopentyl-6,7,8,9-tetrahydro-5,7,7-trimethyl-6-oxo-5H-pyrimido[4,5-b][1,4]diazepin-2-yloxy)-3-methoxybenzoic acid] | not active within the limits of the assay
